# In ChEMBL document CHEMBL1142732, “In-depth study of tripeptide-based alpha-ketoheterocycles as inhibitors of thrombin. Effective utilization of the S1' subsite and its implications to structure-based drug design” (J Med Chem, 2005):
# Assays:
# [1] = tested on: Canis familiaris; test: In vivo effective intravenous dose for that reduces thrombus weight accumulation on a silk fiber by 50% was determined in Dog arteriovenous shunt model; assay type: functional; details: Canis lupus familiaris
# [2] = tested on: Cavia porcellus; test: Cardiovascular safety ratio ratiod (ED-25:ED50) estimation, which is based on a comparison of the hypotensive response in anesthetized guinea pigs to the anticoagulant / antithrombotic response in dogs; assay type: functional
# [3] = target: T1, Prothrombin (Homo sapiens, UniProt P00734); test: Binding affinity determined against human alpha thrombin
# [4] = tested on: Oryctolagus cuniculus; test: In vivo effective intravenous dose for that was determined in Rabbit deep vein thrombosis model
# [5] = tested on: Cavia porcellus; test: Percent change in blood pressure in guinea pig at 10 mg/kg dose
# [6] = species on record: Cavia porcellus; test: animal or person; details: Blood, iv
# Description: In vivo effective intravenous dose for eliciting a 25% decrease in blood pressure in anesthetized Guinea pig
# [7] = target: T1, Prothrombin; test: Inhibitory concentration against human alpha thrombin
# [8] = species on record: Homo sapiens; test: Inhibitory concentration against gel filtered platelet aggregation induced by alpha thrombin; assay type: functional
# [9] = tested on: Cavia porcellus; test: Cardiovascular safety ratio ratiod (ED-25:ED50) estimation, which is based on a comparison of the hypotensive response in anesthetized guinea pigs to the anticoagulant / antithrombotic response in rabbit; assay type: functional
# [10] = target: T1, Prothrombin; test: Inhibition constant against human alpha thrombin
# [11] = target: T2, Serine protease 1 (Bos taurus, UniProt P00760); test: Binding affinity against bovine trypsin
# T2 sequence (P00760 whole entry): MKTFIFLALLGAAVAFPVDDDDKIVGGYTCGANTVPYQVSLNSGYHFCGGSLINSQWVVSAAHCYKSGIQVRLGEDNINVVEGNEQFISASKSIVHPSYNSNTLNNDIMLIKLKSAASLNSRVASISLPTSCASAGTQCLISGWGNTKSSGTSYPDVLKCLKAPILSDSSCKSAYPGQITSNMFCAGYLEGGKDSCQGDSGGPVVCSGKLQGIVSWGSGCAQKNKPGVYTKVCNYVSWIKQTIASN
# [12] = target: T2, Serine protease 1; test: Inhibitory concentration against bovine trypsin
# [13] = tested on: Cavia porcellus; test: Percent change in blood pressure in guinea pig at 3 mg/kg dose
# [14] = target: T1, Prothrombin; test: Inhibitory concentration against human alpha thrombin; NA=Not active at 1 uM
# [15] = target: T1, Prothrombin; test: Binding affinity against human alpha thrombin; SB = slow-binding kinetics
# [16] = target: T1, Prothrombin; test: Binding affinity against human alpha thrombin; SB = Slow-binding
# [17] = target: T1, Prothrombin; test: Inhibitory concentration against human alpha thrombin; NA = Not active at 1 uM
# [18] = tested on: Cavia porcellus; test: Percent change in blood pressure in guinea pig at 1 mg/kg dose
# [19] = target: T1, Prothrombin; test: Inhibitory concentration against human alpha thrombin; NT=Not active at 300 uM
# [20] = target: T2, Serine protease 1; test: Binding affinity against bovine trypsin; NT=Not active at 100 uM
# [21] = target: T2, Serine protease 1; test: Inhibitory concentration against bovine trypsin; Not determined
# [22] = target: T2, Serine protease 1; test: Inhibitory concentration against bovine trypsin; ND=Not determined
# [23] = target: T2, Serine protease 1; test: Inhibitory concentration against bovine trypsin; NT=Not determined
# [24] = target: T1, Prothrombin; test: Binding affinity against human alpha thrombin; […]
# [25] = tested on: Cavia porcellus; test: Percent change in blood pressure in guinea pig at 20 mg/kg dose
# [26] = target: T2, Serine protease 1; test: Binding affinity against bovine trypsin; NA=Not active at 1 uM
# [27] = species on record: Homo sapiens; test: Inhibitory concentration of the compound was determined against gel filtered platelet aggregation induced by alpha thrombin; assay type: functional
# [28] = Oral bioavailability was determined in conscious rat after 10 mg/kg dosage through gavage; assay type: ADME, organism-based; details: in vivo
# [29] = Oral half life was determined in conscious rat after 10 mg/kg dosage through gavage; assay type: ADME, organism-based; set-up: dose 10 mg/kg; details: in vivo
# [30] = Half life was determined in rat after an intravenous dose of 1 mg/kg; assay type: ADME, organism-based; set-up: dose 1 mg/kg, route intravenous; details: in vivo
compound,measurement,setting,value
CN[C@H](Cc1ccccc1)C(=O)N1CCC[C@H]1C(=O)N[C@H](C=O)CCCNC(=N)N (stereo in doubt; 1b),ED50,[1],0.66 mg/kg
same,Ratio,[2],43
same,Ki,[3],18 nM
same,ED50,[4],0.21 mg/kg
same,Delta BP,[5],-21%
same,ED25,[6],28.6 mg/kg
same,IC50,[7],85 nM
same,IC50,[8],83 nM
same,Ratio,[9],136
same,Ki,[10],18 nM
same,Ki,[11],9.1 nM
CN[C@H](Cc1ccccc1)C(=O)N1CCC[C@H]1C(=O)N[C@@H](Cc1ccc(C(=N)N)cc1)C(=O)c1nc2ccccc2s1,Ki,[3],1400 nM
same,IC50,[12],540 nM
CN[C@H](Cc1ccccc1)C(=O)N1CCC[C@H]1C(=O)N[C@@H](CCCN=C(N)N)C(=O)c1nc2ccccc2s1,Delta BP,[13],-85%
same,ED50,[1],0.46 mg/kg
same,ED50,[4],0.25 mg/kg
same,ED25,[6],0.9 mg/kg
same,IC50,[7],29 nM
same,IC50,[8],32 nM
same,Ki,[10],0.18 nM
CN[C@H](Cc1ccccc1)C(=O)N1CCC[C@H]1C(=O)N[C@@H](C(=O)c1nc2ccccc2s1)C1CCC(CN)CC1 (stereo partly drawn),IC50,[14],Not Active
same,Ki,[3],1450 nM
same,Ki,[11],4000 nM
NC(N)=NCCCC(NC(=O)[C@@H]1CCCN1C(=O)[C@H](N)Cc1ccccc1)C(=O)c1nc2ccccc2s1 (stereo partly drawn),Ki,[15],Slow Binding
same,Ki,[11],0.3 nM
CCS(=O)(=O)N[C@H](Cc1ccccc1)C(=O)N1CCC[C@H]1C(=O)NC(CCCN=C(N)N)C(=O)c1nc2ccccc2s1 (stereo partly drawn),Ki,[3],24 nM
same,Delta BP,[5],-36%
same,IC50,[7],500 nM
same,IC50,[8],46 nM
same,Ki,[10],24 nM
same,Ki,[11],31 nM
CN[C@H](Cc1ccccc1)C(=O)N1CCC[C@H]1C(=O)N[C@@](C)(CCCN=C(N)N)C(=O)c1nc2ccccc2s1,Ki,[16],430 nM
same,IC50,[7],3700 nM
same,Ki,[11],6000 nM
CNCCCC[C@H](NC(=O)[C@@H]1CCCN1C(=O)[C@@H](Cc1ccccc1)NC)C(=O)c1nc2ccccc2s1,Ki,[3],3700 nM
same,IC50,[17],Not Active
same,IC50,[8],5200 nM
same,Delta BP,[18],-16%
same,Ki,[11],1200 nM
N=C(N)NCCCCC(=O)c1nc2ccccc2s1,IC50,[19],Not Active
same,Ki,[20],Not Active
CN[C@H](Cc1ccccc1)C(=O)N1CCC[C@H]1C(=O)N[C@H](CCCN=C(N)N)Cc1nc2ccccc2s1,IC50,[21],30000 nM
CN[C@H](Cc1ccccc1)C(=O)N1CCC[C@H]1C(=O)N[C@H](CC(=O)c1nc2ccccc2s1)[C@H]1CC[C@H](N)CC1,IC50,[22],58000 nM
same,IC50,[7],> 100000 nM
CNCCCC[C@@H](NC(=O)[C@@H]1CCCN1C(=O)[C@@H](Cc1ccccc1)NC)C(=O)c1nc2ccccc2s1,IC50,[14],Not Active
same,Ki,[3],3500 nM
same,Ki,[11],1000 nM
CN[C@H](Cc1ccccc1)C(=O)N1CCC[C@H]1C(=O)N[C@@H](CCCN=C(N)N)Cc1nc2ccccc2s1,IC50,[23],32000 nM
N=C(N)NCCCC(NC(=O)[C@@H]1CCCN1C(=O)N[C@H](C=O)Cc1ccccc1)C(=O)c1nc2ccccc2s1 (stereo partly drawn),IC50,[7],17000 nM
same,IC50,[12],5.8 nM
CN[C@H](Cc1ccccc1)C(=O)N1CCC[C@H]1C(=O)NC(CCCN=C(N)N)C(=O)c1nc2ccc(C(N)=O)cc2s1 (stereo partly drawn),Ki,[24],Slow Binding
same,Ki,[11],0.3 nM
N=C(N)NCCC[C@H](NC(=O)[C@@H]1CCCN1C(=O)[C@H](CO)NS(=O)(=O)c1cccc2ccccc12)C(=O)c1nc2ccccc2s1,Delta BP,[25],-30%
same,Ki,[3],0.78 nM
same,IC50,[7],110 nM
same,IC50,[8],34 nM
same,Ki,[10],10 nM
same,Ki,[11],2.9 nM
CN[C@H](Cc1ccccc1)C(=O)N[C@H](C(=O)NC(CCCN=C(N)N)C(=O)c1nc2ccccc2s1)C(C)C (stereo partly drawn),Delta BP,[13],-47%
same,Ki,[3],21 nM
same,IC50,[7],440 nM
same,IC50,[8],180 nM
same,Ki,[10],21 nM
same,Ki,[11],1.5 nM
CN[C@H](Cc1ccccc1)C(=O)N1CCC[C@H]1C(=O)N[C@@H](CCCCN=C(N)N)C(=O)c1nc2ccccc2s1,IC50,[7],8400 nM
same,IC50,[12],630 nM
N=C(N)NCCCC(NC(=O)[C@@H]1CCCN1C(=O)CC(c1ccccc1)c1ccccc1)C(=O)c1nc2ccccc2s1 (stereo partly drawn),Delta BP,[13],-25%
same,Ki,[3],1.1 nM
same,IC50,[7],11 nM
same,IC50,[8],29 nM
same,Ki,[10],3.1 nM
same,Ki,[11],22 nM
CCCC[C@H](NC(=O)[C@@H]1CCCN1C(=O)[C@@H](Cc1ccccc1)NC)C(=O)c1nc2ccccc2s1,Ki,[26],Not Active
CN[C@H](Cc1ccccc1)C(=O)N1CCC[C@H]1C(=O)NC(CCCN=C(N)N)C(=O)c1nc2ccc(C(=O)OC)cc2s1 (stereo partly drawn),ED50,[1],0.47 mg/kg
same,ED50,[4],0.35 mg/kg
same,Delta BP,[5],-16%
same,ED25,[6],13.4 mg/kg
same,IC50,[8],39 nM
same,Ki,[11],31 nM
CN[C@H](Cc1ccccc1)C(=O)N1CCC[C@H]1C(=O)N[C@@H](CC(=O)c1nc2ccccc2s1)[C@H]1CC[C@H](N)CC1,IC50,[22],22000 nM
same,IC50,[7],> 100000 nM
N=C(N)NCCC[C@H](NC(=O)CN1CCCC[C@H](NS(=O)(=O)Cc2ccccc2)C1=O)C(=O)c1nc2ccccc2s1,Ki,[3],16 nM
same,Delta BP,[5],-39%
same,IC50,[7],270 nM
same,IC50,[8],47 nM
same,Ki,[11],9.4 nM
CN[C@H](Cc1ccccc1)C(=O)N1CCC[C@H]1C(=O)NC(CCCN=C(N)N)C(=O)c1nc2ccc(C(=O)O)cc2s1 (stereo partly drawn),ED50,[1],0.14 mg/kg
same,IC50,[27],41 nM
same,bioavailability,[28],3%
same,ED50,[4],0.43 mg/kg
same,Delta BP,[5],-32%
same,half-life,[29],60 min
same,ED25,[6],13 mg/kg
same,half-life,[30],25 min
same,Ki,[11],2.7 nM
CN[C@H](Cc1ccccc1)C(=O)N1CCC[C@H]1C(=O)N[C@@H](Cc1ccccc1)C(=O)c1nc2ccccc2s1,IC50,[14],Not Active
same,Ki,[3],7100 nM
same,Ki,[11],12000 nM
CN[C@@H](C(=O)N1CCC[C@H]1C(=O)NC(CCCN=C(N)N)C(=O)c1nc2ccccc2s1)C(c1ccccc1)c1ccccc1 (stereo partly drawn),Delta BP,[13],-54%
same,IC50,[7],4.5 nM
same,IC50,[8],43 nM
same,Ki,[24],Slow Binding
same,IC50,[12],352 nM
